Measured values reported in US9714234B2, “Carbazole carboxamide compounds” (Bristol-Myers Squibb Company, priority 2013, dated 2017).

Key:
human recombinant Btk = human recombinant Btk (Homo sapiens (Human), UniProt Q06187); assay: Human Recombinant Btk Enzyme Assay; type: biochemical; settings: human recombinant Btk 1 nM, ATP 20 μM
Jak2 tyrosine kinase = Jak2 tyrosine kinase (Homo sapiens (Human), UniProt O60674); assay: Jak2 Tyrosine Kinase Assay; type: biochemical; settings: for IC50: Jak2 1 nM, ATP 30 μM; for Ratio of Jak2/Btk IC50 values: selectivity for Btk over Jak2, larger value = more selective for Btk
[1] = system: CD69 expression on B cells in human whole blood; assay: Whole Blood Assays of BCR-Stimulated CD69 Expression on B Cells; type: cell-based; settings: anti-human IgM + IL-4 stimulation, 18 h at 37° C.

human recombinant Btk, sequence (Q06187 whole entry): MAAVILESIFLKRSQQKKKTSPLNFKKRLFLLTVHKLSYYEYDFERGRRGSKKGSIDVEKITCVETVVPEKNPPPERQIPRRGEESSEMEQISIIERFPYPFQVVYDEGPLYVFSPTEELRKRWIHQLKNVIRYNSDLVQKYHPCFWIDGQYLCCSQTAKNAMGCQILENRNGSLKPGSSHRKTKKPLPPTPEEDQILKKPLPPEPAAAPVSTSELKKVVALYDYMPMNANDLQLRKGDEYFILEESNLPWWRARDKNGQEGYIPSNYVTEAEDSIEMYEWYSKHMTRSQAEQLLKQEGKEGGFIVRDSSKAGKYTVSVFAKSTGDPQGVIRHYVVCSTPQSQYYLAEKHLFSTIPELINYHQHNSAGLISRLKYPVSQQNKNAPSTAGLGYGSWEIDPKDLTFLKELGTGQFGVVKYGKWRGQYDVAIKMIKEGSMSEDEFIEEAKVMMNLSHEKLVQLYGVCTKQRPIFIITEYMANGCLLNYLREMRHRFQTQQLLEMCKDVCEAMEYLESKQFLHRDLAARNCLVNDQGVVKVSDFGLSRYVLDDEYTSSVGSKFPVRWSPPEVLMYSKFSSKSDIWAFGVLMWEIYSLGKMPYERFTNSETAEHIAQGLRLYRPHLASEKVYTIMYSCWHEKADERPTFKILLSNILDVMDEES
Jak2 tyrosine kinase, sequence (O60674 whole entry): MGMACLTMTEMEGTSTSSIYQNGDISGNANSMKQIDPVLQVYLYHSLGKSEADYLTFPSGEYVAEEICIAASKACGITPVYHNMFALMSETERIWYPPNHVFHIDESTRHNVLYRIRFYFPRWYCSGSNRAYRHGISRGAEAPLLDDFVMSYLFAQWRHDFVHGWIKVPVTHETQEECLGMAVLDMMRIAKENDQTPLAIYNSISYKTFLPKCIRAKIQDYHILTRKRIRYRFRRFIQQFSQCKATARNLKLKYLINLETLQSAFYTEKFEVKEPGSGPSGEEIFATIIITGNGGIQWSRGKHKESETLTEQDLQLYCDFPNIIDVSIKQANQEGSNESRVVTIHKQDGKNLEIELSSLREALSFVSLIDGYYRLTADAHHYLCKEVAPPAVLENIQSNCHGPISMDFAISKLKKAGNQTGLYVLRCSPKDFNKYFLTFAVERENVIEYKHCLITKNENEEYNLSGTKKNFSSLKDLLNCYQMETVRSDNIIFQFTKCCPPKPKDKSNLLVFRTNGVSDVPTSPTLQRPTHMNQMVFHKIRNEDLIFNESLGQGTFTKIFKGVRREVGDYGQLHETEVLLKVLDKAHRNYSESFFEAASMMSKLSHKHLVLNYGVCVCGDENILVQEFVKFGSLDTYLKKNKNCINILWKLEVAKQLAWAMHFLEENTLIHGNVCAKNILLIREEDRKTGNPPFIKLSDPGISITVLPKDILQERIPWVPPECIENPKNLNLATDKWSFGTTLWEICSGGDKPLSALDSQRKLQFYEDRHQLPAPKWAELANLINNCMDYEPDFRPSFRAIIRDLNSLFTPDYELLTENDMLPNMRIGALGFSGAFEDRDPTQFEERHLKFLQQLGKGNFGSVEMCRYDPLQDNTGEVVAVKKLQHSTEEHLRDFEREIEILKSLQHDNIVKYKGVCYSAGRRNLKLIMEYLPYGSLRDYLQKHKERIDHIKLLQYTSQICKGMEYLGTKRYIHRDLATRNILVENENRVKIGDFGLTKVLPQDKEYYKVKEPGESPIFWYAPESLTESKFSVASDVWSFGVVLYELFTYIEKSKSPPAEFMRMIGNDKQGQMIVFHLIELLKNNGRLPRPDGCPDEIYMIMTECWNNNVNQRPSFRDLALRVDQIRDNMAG

Compound	IC50 (human recombinant Btk)	IC50 (Jak2 tyrosine kinase)	Ratio of Jak2/Btk IC50 values (Jak2 tyrosine kinase)	IC50 [1]	IC50 ([1]; B-cell)
Cc1c(-c2ccc(C(N)=O)c3[nH]c4cc(C(C)(C)O)cc(C)c4c23)cccc1-n1c(=O)c2cccc(F)c2n(C)c1=O (single isomer, unassigned) [Example 25]	0.7 nM	4600 nM	6600	–	69 nM
Cn1c(=O)n(-c2cccc(-c3ccc(C(N)=O)c4[nH]c5cc(C(C)(C)O)ccc5c34)c2Cl)c(=O)c2ccccc21 [Example 6, 4-(2-Chloro-3-(1-methyl-2,4-dioxo-1,2-dihydroquinazolin-3(4H)-yl)phenyl)-7-(2-hydroxypropan-2-yl)-9H-carbazole-1-carboxamide]	5.3 nM	1800 nM	340	–	150 nM
Cc1c(-c2ccc(C(N)=O)c3[nH]c4cc(NC(=O)C(C)(C)C)ccc4c23)cccc1-n1c(=O)cc2c(Cl)cccn2c1=O [Example 16, 4-(3-(5-Chloro-1,3-dioxo-1H-pyrido[1,2-c]pyrimidin-2(3H)-yl)-2-methylphenyl)-7-pivalamido-9H-carbazole-1-carboxamide]	2.1 nM	2200 nM	1000	–	220 nM
4-(3-(S)-(8-Fluoro-1-methyl-2,4-dioxo-1,2-dihydroquinazolin-3(4H)-yl)-2-methylphenyl)-7-(2-hydroxypropan-2-yl)-5-methyl-9H-carbazole-1-carboxamide [Example 24]	0.59 nM	> 2000 nM	>3400	160 nM	–
Cc1c(-c2ccc(C(N)=O)c3[nH]c4cc(C(C)(C)O)ccc4c23)cccc1-n1c(=O)cc2c(Cl)cccn2c1=O [Example 14, 4-(3-(R)-(5-Chloro-1,3-dioxo-1H-pyrido[1,2-c]pyrimidin-2(3H)-yl)-2-methylphenyl)-7-(2-hydroxypropan-2-yl)-9H-carbazole-1-carboxamide]	–	–	–	78 nM	–
Cc1c(-c2ccc(C(N)=O)c3[nH]c4c(C)c(C(C)(C)O)ccc4c23)cccc1-n1c(=O)c2cccc(F)c2n(C)c1=O (atropisomer, axis not shown) [Example 26, 4-(3-(S)-(8-Fluoro-1-methyl-2,4-dioxo-1,2-dihydroquinazolin-3(4H)-yl)-2-methylphenyl)-7-(2-hydroxypropan-2-yl)-8-methyl-9H-carbazole-1-carboxamide]	0.84 nM	> 2000 nM	>2400	–	200 nM
[2H]C([2H])([2H])n1c(=O)n(-c2cccc(-c3ccc(C(N)=O)c4[nH]c5cc(C(C)(C)O)cc(C)c5c34)c2C)c(=O)c2cccc(F)c21 (atropisomer, axis not shown) [Example 27, 4-(3-(S)-(8-Fluoro-1-methyl(d3)-2,4-dioxo-1,2-dihydroquinazolin-3(4H)-yl)-2-methylphenyl)-7-(2-hydroxypropan-2-yl)-5-methyl-9H-carbazole-1-carboxamide]	1.2 nM	> 2000 nM	>1700	–	98 nM
[2H]C([2H])([2H])n1c(=O)n(-c2cccc(-c3ccc(C(N)=O)c4[nH]c5cc(C(C)(C)O)ccc5c34)c2C)c(=O)c2cccc(F)c21 (atropisomer, axis not shown) [Example 4, 4-(3-(S)-(8-Fluoro-1-methyl(d3)-2,4-dioxo-1,2-dihydroquinazolin-3(4H)-yl)-2-methylphenyl)-7-(2-hydroxypropan-2-yl)-9H-carbazole-1-carboxamide]	–	2000 nM	–	190 nM	–
Cc1c(-c2ccc(C(N)=O)c3[nH]c4cc(C(C)(C)O)ccc4c23)cccc1-n1c(=O)c(F)c2ccccn2c1=O [Example 19, 4-(3-(4-Fluoro-1,3-dioxo-1H-pyrido[1,2-c]pyrimidin-2(3H)-yl)-2-methylphenyl)-7-(2-hydroxypropan-2-yl)-9H-carbazole-1-carboxamide]	1.6 nM	1900 nM	1200	–	140 nM
Cc1c(-c2ccc(C(N)=O)c3[nH]c4cc(CN5CCCC5)ccc4c23)cccc1-n1c(=O)cc2c(Cl)cccn2c1=O [Example 31, 4-(3-(5-chloro-1,3-dioxo-1H-pyrido[1,2-c]pyrimidin-2(3H)-yl)-2-methylphenyl)-7-(pyrrolidin-1-ylmethyl)-9H-carbazole-1-carboxamide]	–	–	–	–	60 nM
Cc1nc(C(N)=O)c2[nH]c3cc(C(C)(C)O)ccc3c2c1-c1cccc(-n2cnc3ccccc3c2=O)c1C [compound 35, 7-(2-Hydroxypropan-2-yl)-3-methyl-4-(2-methyl-3-(4-oxoquinazolin-3(4H)-yl)phenyl)-9H-pyrido[3,4-b]indole-1-carboxamide, reference compound]	–	–	29	–	–
Cc1c(-c2ccc(C(N)=O)c3[nH]c4cc(N(C)C)ccc4c23)cccc1-n1c(=O)cc2c(F)cccn2c1=O [Example 29, 7-(dimethylamino)-4-(3-(5-fluoro-1,3-dioxo-1H-pyrido[1,2-c]pyrimidin-2(3H)-yl)-2-methylphenyl)-9H-carbazole-1-carboxamide]	–	–	–	–	56 nM

Other lines, results leading:

IC50 (human recombinant Btk)	IC50 (Jak2 tyrosine kinase)	Ratio of Jak2/Btk IC50 values (Jak2 tyrosine kinase)	IC50 [1]	IC50 ([1]; B-cell)	Compound
2.4 nM	850 nM	350	200 nM	–	Cc1c(-c2ccc(C(N)=O)c3[nH]c4cc(C(C)(C)O)ccc4c23)cccc1-n1c(=O)[nH]c2c(F)cccc2c1=O (single isomer, unassigned) [Example 2, 4-(3-(8-Fluoro-2,4-dioxo-1,2-dihydroquinazolin-3(4H)-yl)-2-methylphenyl)-7-(2-hydroxypropan-2-yl)-9H-carbazole-1-carboxamide]
1.2 nM	1000 nM	830	79 nM	–	Cc1c(-c2ccc(C(N)=O)c3[nH]c4cc(C(C)(C)O)ccc4c23)cccc1-n1c(=O)cc2c(F)cccn2c1=O [Example 23, 4-(3-(5-Fluoro-1,3-dioxo-1H-pyrido[1,2-c]pyrimidin-2(3H)-yl)-2-methylphenyl)-7-(2-hydroxypropan-2-yl)-9H-carbazole-1-carboxamide]
0.63 nM	1000 nM	1600	–	140 nM	COc1ccn2c(=O)n(-c3cccc(-c4ccc(C(N)=O)c5[nH]c6cc(C(C)(C)O)ccc6c45)c3C)c(=O)cc2c1 [Example 11, 7-(2-Hydroxypropan-2-yl)-4-(3-(6-methoxy-1,3-dioxo-1H-pyrido[1,2-c]pyrimidin-2(3H)-yl)-2-methylphenyl)-9H-carbazole-1-carboxamide]
1.2 nM	430 nM	360	–	130 nM	CC(=O)NCc1ccc2c(c1)[nH]c1c(C(N)=O)ccc(-c3cccc(-n4c(=O)cc5c(F)cccn5c4=O)c3C)c12 [Example 30, 7-(acetamidomethyl)-4-(3-(5-fluoro-1,3-dioxo-1H-pyrido[1,2-c]pyrimidin-2(3H)-yl)-2-methylphenyl)-9H-carbazole-1-carboxamide]
–	1200 nM	–	190 nM	–	Cc1c(-c2ccc(C(N)=O)c3[nH]c4cc(C(C)(C)O)ccc4c23)cccc1-n1c(=O)c2cccc(F)c2n(C)c1=O (atropisomer, axis not shown) [Example 3, 4-(3-(S)-(8-Fluoro-1-methyl-2,4-dioxo-1,2-dihydroquinazolin-3(4H)-yl)-2-methylphenyl)-7-(2-hydroxypropan-2-yl)-9H-carbazole-1-carboxamide]
0.9 nM	1200 nM	1300	–	180 nM	Cn1c(=O)n(-c2cccc(-c3ccc(C(N)=O)c4[nH]c5cc(C(C)(C)O)ccc5c34)c2Cl)c(=O)c2cccc(F)c21 [Example 5, 4-(2-Chloro-3-(8-fluoro-1-methyl-2,4-dioxo-1,2-dihydroquinazolin-3(4H)-yl)phenyl)-7-(2-hydroxypropan-2-yl)-9H-carbazole-1-carboxamide]
0.94 nM	1300 nM	1400	120 nM	–	Cc1c(-c2ccc(C(N)=O)c3[nH]c4cc(C(C)(C)O)ccc4c23)cccc1-n1c(=O)cc2c(Cl)cccn2c1=O [Example 13, 4-(3-(5-Chloro-1,3-dioxo-1H-pyrido[1,2-c]pyrimidin-2(3H)-yl)-2-methylphenyl)-7-(2-hydroxypropan-2-yl)-9H-carbazole-1-carboxamide]
1.7 nM	1300 nM	760	–	220 nM	COc1cccc2c(=O)n(-c3cccc(-c4ccc(C(N)=O)c5[nH]c6cc(C(C)(C)O)ccc6c45)c3C)c(=O)n(C)c12 [Example 7, 7-(2-Hydroxypropan-2-yl)-4-(3-(8-methoxy-1-methyl-2,4-dioxo-1,2-dihydroquinazolin-3(4H)-yl)-2-methylphenyl)-9H-carbazole-1-carboxamide]
1.6 nM	570 nM	360	–	130 nM	Cc1c(-c2ccc(C(N)=O)c3[nH]c4cc(C(C)(C)O)ccc4c23)cccc1-n1c(=O)cc2sccn2c1=O [Example 20, 4-(3-(5,7-Dioxo-5H-thiazolo[3,2-c]pyrimidin-6(7H)-yl)-2-methylphenyl)-7-(2-hydroxypropan-2-yl)-9H-carbazole-1-carboxamide]
1.5 nM	800 nM	530	–	87 nM	Cc1c(-c2ccc(C(N)=O)c3[nH]c4cc(CO)ccc4c23)cccc1-n1c(=O)cc2c(F)cccn2c1=O [Example 28, 4-(3-(5-fluoro-1,3-dioxo-1H-pyrido[1,2-c]pyrimidin-2(3H)-yl)-2-methylphenyl)-7-(hydroxymethyl)-9H-carbazole-1-carboxamide]
1.4 nM	1100 nM	790	–	120 nM	COc1ccc2cc(=O)n(-c3cccc(-c4ccc(C(N)=O)c5[nH]c6cc(C(C)(C)O)ccc6c45)c3C)c(=O)n2c1 [Example 10, 7-(2-Hydroxypropan-2-yl)-4-(3-(7-methoxy-1,3-dioxo-1H-pyrido[1,2-c]pyrimidin-2(3H)-yl)-2-methylphenyl)-9H-carbazole-1-carboxamide]
